Laboratory results taken from US20080096894A1, “Anti-Bacterial Compounds” (ASTON UNIVERSITY, priority 2005, published 2008).
In brackets after ≈: the same amount, converted by molar mass. Like-named read-outs stand apart in the source and are kept apart here. Values belong to the compound of their own block, whether it stands above or below them.

Legend:
[1] = system: Escherichia coli olli-blue; experiment: MIC, doubling dilution in 96-well microtitre plate; type: cell-based
Description: (§1) The compound was tested as follows. […] The wells were inoculated with organism ([…] of medium containing 10^6 cfu/mL) and the plates were incubated at 37° C. overnight. Where growth of organism occurred this was observed as a small button when viewed from underneath the plate. The MIC was determined as the lowest concentration inhibiting growth.

Salmonella enteriditis = experiment: MIC, doubling dilution in 96-well microtitre plate; type: cell-based
Description: as §1

[2] = system: Klebsiella pneumoniae ATCC 33495; experiment: MIC, doubling dilution in 96-well microtitre plate; type: cell-based
Description: as §1

Salmonella arizonae = experiment: MIC, doubling dilution in 96-well microtitre plate; type: cell-based
Description: as §1

[3] = system: Streptococcus bovis NCTC 11436; experiment: MIC, doubling dilution in 96-well microtitre plate; type: cell-based
Description: as §1

Micrococcus luteus = experiment: MIC, doubling dilution in 96-well microtitre plate; type: cell-based
Description: as §1

[4] = system: Staphylococcus aureus (MRSA) 96-7475; experiment: MIC, doubling dilution in 96-well microtitre plate; type: cell-based
Description: as §1

Bacillus cereus = experiment: MIC, doubling dilution in 96-well microtitre plate; type: cell-based
Description: as §1

[5] = system: Staphylococcus aureus NCTC 10788; experiment: MIC, doubling dilution in 96-well microtitre plate; type: cell-based
Description: as §1

[6] = system: Staphylococcus aureus W11 MRSA; experiment: MIC, doubling dilution in 96-well microtitre plate; type: cell-based
Description: as §1

Salmonella Cambridge = experiment: MIC, doubling dilution in 96-well microtitre plate; type: cell-based
Description: as §1

[7] = system: Enterococcus faecalis NCTC 5957; experiment: MIC, doubling dilution in 96-well microtitre plate; type: cell-based
Description: as §1

Citrobacter freundii = experiment: MIC, doubling dilution in 96-well microtitre plate; type: cell-based
Description: as §1

[8] = system: Enterobacter cloacae ATCC 13047; experiment: MIC, doubling dilution in 96-well microtitre plate; type: cell-based
Description: as §1

[9] = system: Citrobacter diversus 2046E; experiment: MIC, doubling dilution in 96-well microtitre plate; type: cell-based
Description: as §1

Bacillus megarerium = experiment: MIC, doubling dilution in 96-well microtitre plate; type: cell-based
Description: as §1

[10] = system: Pseudomonas aeruginosa ATCC 15692 (PA01); experiment: MIC, doubling dilution in 96-well microtitre plate; type: cell-based
Description: as §1

[11] = system: Staphylococcus epidermidis NCTC 11047; experiment: MIC, doubling dilution in 96-well microtitre plate; type: cell-based
Description: as §1

[12] = system: Proteus mirabilis NCTC 5887; experiment: MIC, doubling dilution in 96-well microtitre plate; type: cell-based
Description: as §1

Salmonella banana = experiment: MIC, doubling dilution in 96-well microtitre plate; type: cell-based
Description: as §1

Micrococcus roseus = experiment: MIC, doubling dilution in 96-well microtitre plate; type: cell-based
Description: as §1

Moraxella catarrhalis = experiment: MIC, doubling dilution in 96-well microtitre plate; type: cell-based
Description: as §1

Hafnia alvei = experiment: MIC, doubling dilution in 96-well microtitre plate; type: cell-based
Description: as §1

[13] = system: Staphylococcus aureus NCTC 6571; experiment: MIC, doubling dilution in 96-well microtitre plate; type: cell-based
Description: as §1

Enterococcus faecium = experiment: MIC, doubling dilution in 96-well microtitre plate; type: cell-based; conditions: Enterococcus faecium ATCC 10541
Description: as §1

Bacillus subtilis = experiment: MIC, doubling dilution in 96-well microtitre plate; type: cell-based
Description: as §1

[14] = system: human mononuclear leucocytes (MNL, white blood cells); experiment: direct leucocyte toxicity, tryptan blue exclusion, 18 hours; type: cell-based
In short: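 Human mononuclear leucocytes exposed to test compound for 18 hours. Cell death scored by trypan blue exclusion, the dye staining dead cells only.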

S. aureus = experiment: MIC, agar dilution, multipoint inoculator; type: cell-based, Staphylococcus aureus; conditions: Staphylococcus aureus, upper value of MIC reading, read-out: MIC
In short: (§2)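 Minimum inhibitory concentrations come from an agar dilution method using Mueller Hinton medium. Inocula of 10^4 colony forming units per spot were applied with a multipoint inoculator.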

[15] = system: vancomycin resistant enterococci; experiment: MIC, agar dilution, multipoint inoculator; type: cell-based; conditions: one value printed for the seven vancomycin resistant enterococci cultures of Table 5; read-out: MIC
Description: This activity was measured using a multipoint inoculator method as follows. The MIC for each compound was measured using an agar dilution method (Onda, H., et al., Int. J. Antimicrob. Agents. 18, 263 (2001)) (Mueller Hinton agar) by means of a multipoint inoculator delivering 10^4 colony forming units per spot.
It will be noted that compound 4PYcq was active against all strains of MRSA as well as all other Gram positive bacteria. For this reason it was further tested against some vancomycin resistant enterococci, using the multipoint inoculator method described above. It can be seen from Table 5 that the high level activity was retained.

S. haemolyticus = experiment: MIC, agar dilution, multipoint inoculator; type: cell-based; conditions: Staphylococcus haemolyticus, 18 h; S. haemolyticus Isolate 1; upper value of MIC reading; read-out: MIC
In short: as §2

E. faecalis = experiment: MIC, agar dilution, multipoint inoculator; type: cell-based; conditions: Enterococcus faecalis, upper value of MIC reading, read-out: MIC
In short: as §2

E. faecium = experiment: MIC, agar dilution, multipoint inoculator; type: cell-based, Enterococcus faecium; conditions: Enterococcus faecium, upper value of MIC reading, read-out: MIC
In short: as §2

SMILES: NC(=NN=Cc1ccc([N+](=O)[O-])o1)c1cc[n+]([O-])cc1 (mixture of isomers) [Compound 4PYOfi]
MIC [1]: 16 to 32 µg/mL | MIC (Salmonella enteriditis): 32 to 64 µg/mL | MIC [2]: 32 to 64 µg/mL | MIC (Salmonella arizonae): 16 to 32 µg/mL | MIC [3]: 4 to 8 µg/mL | MIC (Micrococcus luteus): 8 to 16 µg/mL | MIC [4]: 4 to 8 µg/mL | MIC (Bacillus cereus): 8 to 16 µg/mL | MIC [5]: 4 to 8 µg/mL | MIC [6]: 4 to 8 µg/mL | MIC (Salmonella Cambridge): 16 to 32 µg/mL | MIC [7]: 4 to 8 µg/mL | MIC (Citrobacter freundii): 32 to 64 µg/mL | MIC [8]: 32 to 64 µg/mL | MIC [9]: 32 to 64 µg/mL | MIC (Bacillus megarerium): 8 to 16 µg/mL | MIC [10]: 32 to 64 µg/mL | MIC [11]: 2 to 4 µg/mL | MIC [12]: 32 to 64 µg/mL | MIC (Salmonella banana): 4 to 8 µg/mL | MIC (Micrococcus roseus): 8 to 16 µg/mL | MIC (Moraxella catarrhalis): 16 to 32 µg/mL | MIC (Hafnia alvei): 32 to 64 µg/mL | MIC [13]: 4 to 8 µg/mL | MIC (Enterococcus faecium): 8 to 16 µg/mL | MIC (Bacillus subtilis): 8 to 16 µg/mL

MIC (S. aureus; 18 h, S. aureus Cowan 1): 4 µg/mL (≈ 11.3 µM) | MIC (S. aureus; NCTC6571, 18 h, S. aureus NCTC 6571): 4 µg/mL (≈ 11.3 µM) | MIC (S. aureus; NCTC10788, 18 h, S. aureus NCTC 10788): 4 µg/mL (≈ 11.3 µM) | MIC [15]: 2 to 4 µg/mL (≈ 5.67 to 11.3 µM) | MIC (E. faecalis; 18 h, E. faecalis EBH1): 4 µg/mL (≈ 11.3 µM) | MIC (E. faecalis; 18 h, E. faecalis Isolate 1): 4 µg/mL (≈ 11.3 µM) | MIC (E. faecalis; 18 h, E. faecalis Isolate 2): 4 µg/mL (≈ 11.3 µM) | MIC (E. faecalis; 18 h, E. faecalis Isolate 4): 4 µg/mL (≈ 11.3 µM) | MIC (E. faecalis; 18 h, E. faecalis Isolate 5): 4 µg/mL (≈ 11.3 µM) | MIC (E. faecalis; NCTC5957, 18 h, E. faecalis NCTC 5957): 4 µg/mL (≈ 11.3 µM) | MIC (E. faecium; 18 h, E. faecium ACTCC 10541): 4 µg/mL (≈ 11.3 µM) | MIC (E. faecium; NCTC7171, 18 h, E. faecium NCTC 7171): 4 µg/mL (≈ 11.3 µM)
SMILES: CC(C)(C)c1cc(/C=N/N=C(\N)c2ccncc2)c(O)c(C(C)(C)C)c1 [Compound 4PYcq]
direct MNL toxicity (in words) [14]: very toxic to leucocytes | MIC (S. haemolyticus): 4 µg/mL (≈ 11.3 µM)
